The text below walks through data of patent US20120270807A1, “MACROCYCLIC INHIBITORS OF SERINE PROTEASE ENZYMES” (priority 2009, published 2012).

The structures appear in SMILES notation.

For the assay, the target named is human matriptase (Homo sapiens, UniProt Q9Y5Y6). The assay is described as follows: Assay for inhibition of matriptase (fluorogenic substrate Boc-Gln-Ala-Arg-AMC). In kind it is biochemical. To be noted: residual matriptase activity in presence of test compound; hydrolysis of Boc-Gln-Ala-Arg-AMC; 10 μM for initial screening per method. From the text:
The following describes an assay for matriptase as a representative serine protease and is based upon reported methods. (Désilets, A.; Longpré, J.-M.; Beaulieu, M.-E.; Leduc, R. FEBS Lett. 2006, 580, 2227-2232.) Similar assays are applicable and available for other serine proteases.
Enzyme activities were monitored by measuring the release of fluorescence from AMC-coupled peptides (excitation, 360 nm; emission, 441 nm) in a FLX-800 TBE microplate reader (Bio-Tek Instruments, Winooski, Vt., USA). The purified human matriptase was active site titrated with the burst titrant 4-methylumbelliferyl-p-guanidino benzoate (MUGB). Enzymatic assays with matriptase were performed in Tris-HCl 100 mM containing 500 µg/mL BSA at pH 9. Human soluble furin was expressed, purified, titrated and assayed as described in the literature (Denault, J. B.; Lazure, C.; Day, R; Leduc, R. Protein Expr. Purif. 2000, 19, 113-124.) The purified HAT protein was active-site titrated with MUGB. Assays with HAT were performed in 50 mM Tris-HCl at pH 8.6.
Enzymes were diluted to concentrations ranging from 4 to 12.5 nM for furin, from 2 to 7 nM for matriptase and 20 pM for HAT and incubated with either 10 μM (for initial screening) […] or appropriate dilutions (for kinetic analysis), for example 0, 500, 1000, 2000 nM or 0, 250, 500, 1000, 2500, 5000 nM, of the test compound for 15 min at RT. Residual enzyme activity was measured by following the hydrolysis of a fluorogenic substrate (4 μM Boc-Arg-Val-Arg-Arg-AMC for furin, Boc-Gln-Ala-Arg-AMC for matriptase and 4 μM Boc-Val-Pro-Arg-AMC for HAT) (Bachem Bioscience, King of Prussia, Pa., USA). Saturation curves were performed in the presence of increasing concentrations of test compounds. Data from three independent experiments or more were typically averaged and residual velocities were plotted as a function of test compound concentration. Data were fitted by non-linear regression analysis to Equation (1) (Bieth, J. G. Methods Enzymol. 1995, 248, 59-84.) using the Enzfitter software (Biosoft, Ferguson, Mo., USA).
vi/v0=1−{([E]0+[I]0+Ki(app))−(([E]0+[I]0+Ki(app))^2−4[E]0[I]0)^1/2}/2[E]0 Equation (1): […]
where v0 and vi are the steady-state rates of substrate hydrolysis in the absence and presence of inhibitor, respectively, [E]0, the initial concentration of enzyme, [I]0, the initial concentration of inhibitor and Ki(app) the substrate-dependent equilibrium dissociation constant. The substrate-independent constant Ki was calculated using Equation (2) (Bieth, J. G. Methods Enzymol. 1995, 248, 59-84.),
Ki=Ki(app)(1+[S]0/Km) Equation (2): […]
The table presents results for matriptase inhibition for representative compounds of the invention.
Ki's can be calculated from the velocity using nonlinear regression analysis. The model used is a competitive enzyme inhibition equation where KmObs=Km*(1+[I]/Ki) and Y=Vmax*X/(KmObs+X). X is the substrate concentration. Y the velocity.

human matriptase, sequence (Q9Y5Y6 615-855 limits assumed, other chains not shown): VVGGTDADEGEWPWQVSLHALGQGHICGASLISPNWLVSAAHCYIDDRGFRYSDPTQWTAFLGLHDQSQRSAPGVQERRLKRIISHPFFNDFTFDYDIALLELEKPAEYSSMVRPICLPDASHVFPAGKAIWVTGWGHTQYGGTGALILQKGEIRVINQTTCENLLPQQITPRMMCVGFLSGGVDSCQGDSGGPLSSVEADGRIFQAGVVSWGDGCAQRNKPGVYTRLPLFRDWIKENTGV

With `C[C@@H]1CN[C@@H](C2CC2)C(=O)N(C)[C@H](C)C(=O)N[C@H](Cc2ccc(C(=N)N)cc2)C(=O)NCCCc2ccccc2O1` [Compound 459], the “Velocity (FU/min)” value was 140 FU/min.
`C[C@@H]1NCCOc2cc(F)ccc2CCCNC(=O)[C@@H](Cc2ccc(C(=N)N)cc2)NC(=O)[C@@H](C)N(C)C1=O` [Compound 467]: the “Velocity (FU/min)” value was 2300 FU/min.
For the compound `C[C@@H]1C(=O)N[C@H](Cc2ccc(C(=N)N)cc2)C(=O)NC/C=C/c2cccc(c2)OCCN[C@@H](C2CC2)C(=O)N1C` [Compound 482], the “Velocity (FU/min)” value is given as 2500 FU/min.
Next, `C[C@@H]1C(=O)N[C@H](CCCN)C(=O)NCCCc2ccc(F)cc2OCCN[C@@H](C2CC2)C(=O)N1C` [Compound 487]: 2500 FU/min; `C[C@@H]1C(=O)N[C@H](Cc2c[nH]cn2)C(=O)NCCCc2ccc(F)cc2OCCN[C@@H](C2CC2)C(=O)N1C` [Compound 493]: 2700 FU/min.
Take `C[C@@H]1C(=O)N[C@H](Cc2ccncc2)C(=O)NCCCc2ccc(F)cc2OCCN[C@@H](C2CC2)C(=O)N1C` [Compound 495]: the “Velocity (FU/min)” value is given as 2700 FU/min.
Next, `C[C@@H]1C(=O)N[C@H](Cc2cscn2)C(=O)NCCCc2ccc(F)cc2OCCN[C@@H](C2CC2)C(=O)N1C` [Compound 496]: 2700 FU/min; `C[C@@H]1CN[C@@H](C2CC2)C(=O)N(C)[C@H](C)C(=O)N[C@H](Cc2ccc(C(N)=O)cc2)C(=O)NCCCc2ccccc2O1` [Compound 498]: 580 FU/min.
